Test results taken from patent publication US9006257B2, “Bicyclic compounds as mPGES-1 inhibitors” (Glenmark Pharmaceuticals S.A., priority 2012, dated 2015).

Target: T1, Recombinant human mPGES-1 (Homo sapiens, UniProt O14684)
T1 construct: made in house; host or cells: CHO cells
T1 sequence (O14684 1-152): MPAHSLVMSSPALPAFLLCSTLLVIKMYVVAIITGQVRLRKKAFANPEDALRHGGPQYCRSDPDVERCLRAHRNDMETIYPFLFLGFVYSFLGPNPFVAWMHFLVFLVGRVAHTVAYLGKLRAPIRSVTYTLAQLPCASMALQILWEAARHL
Experiment: In-vitro mPGES-1 inhibitor screening (inhibition of PGE2 formation from PGH2, HTRF detection)
Type: biochemical
Settings: for inhibition at 1 µM: 1 μM test compound, read-out: Percentage inhibition at 1 μM; for inhibition at 1 µM / inhibition at 10 µM: crude microsomal fraction, 15 μM PGH2; for inhibition at 10 µM: 10 μM test compound, read-out: Percentage inhibition at 10 μM; for IC50: class symbol, concentration response curve
From the text: In-Vitro Protocol for Screening of mPGES-1 Inhibitors:
mPGES-1 (microsomal prostaglandin E synthase-1) is a microsomal enzyme that converts endoperoxide substrate PGH2 (prostaglandin H2) to product PGE2 (prostaglandin E2) by isomerization in the presence of reduced glutathione (GSH). mPGES-1 inhibitors were screened by assessing their ability to inhibit formation of PGE2 from PGH2 in presence of mPGES-1 using an anti-PGE2 antibody based detection method. Recombinant human mPGES-1 was generated in-house by expression in CHO cells (Ouellet M et al. (2002), Protein Expression and Purification 26: 489-495). The assay was set up using crude microsomal fractions at protein concentration of 40-60 μg/mL. Test compounds were prepared in 100% dimethyl sulfoxide (DMSO) to obtain 20 mM stock solution and then diluted using assay buffer comprising 0.1 M Potassium phosphate buffer with 2 mM EDTA. The final concentration of DMSO in reaction was 0.5% (v/v). Negative controls were comprised of all assay reagents except the enzyme. Positive controls were comprised of the enzyme reaction in the absence of any inhibitor. Test compounds were incubated for 10 minutes in assay buffer containing 2.5 mM GSH and mPGES-1 enzyme followed by addition of PGH2 at a concentration of 15 μM for 1 minute. The reaction was stopped by addition of Stannous chloride (11 mg/ml) and PGE2 levels were measured (Masse F et al. (2005), Journal of Biomolecular Screening 10(6) 599-605., Goedken R E et al. (2008), Journal of Biomolecular Screening 13(7): 619-625) by HTRF kit (CisBio)).
Inhibition of mPGES-1 enzyme activity was measured using the percent of reaction occurring in the positive control. Concentration response curves were plotted using percent inhibition of maximum enzyme reaction. The IC50 value was calculated from the concentration response curve by nonlinear regression analysis using GraphPad PRISM software.

inhibition at 1 µM | inhibition at 10 µM | IC50 | SMILES
99.3% | 99.7% | < 50 nM | CC(C)(C)C(=O)NCc1ccc(Cl)c(C(=O)Nc2cccc3c(Oc4ccc(F)c(C(F)(F)F)c4)ccnc23)c1F [Example-51, 6-Chloro-2-fluoro-N-(4-(4-fluoro-3-(trifluoromethyl)phenoxy)quinolin-8-yl)-3-(pivalamidomethyl)benzamide]
97.5% | 99.4% | < 50 nM | CC(C)Oc1ncnc2c(NC(=O)c3c(Cl)ccc(CNC(=O)C(C)(C)C)c3F)cccc12 [Example-59, 6-Chloro-2-fluoro-N-(4-isopropoxyquinazolin-8-yl)-3-(pivalamidomethyl)benzamide]
94.4% | 93.9% | < 50 nM | CC(C)(C)C(=O)NCc1ccc(Cl)c(C(=O)Nc2cccc3c(O[C@H]4CC[C@H](C(F)(F)F)CC4)ncnc23)c1F [Example-27, 6-Chloro-2-fluoro-3-(pivalamidomethyl)-N-(4-(((1r,4r)-4-(trifluoromethyl)cyclohexyl)oxy)quinazolin-8-yl)benzamide]
91.9% | 91% | < 50 nM | COc1c(CNC(=O)C(C)(C)C)ccc(Cl)c1C(=O)Nc1cccc2c(Oc3cccc(C(F)(F)F)c3)ncnc12 [Example-49, 6-Chloro-2-methoxy-3-(pivalamidomethyl)-N-(4-(3-(trifluoromethyl)phenoxy)quinazolin-8-yl)benzamide]
97.3% | 97.8% | < 50 nM | CC(C)(C)Nc1ncnc2c(NC(=O)c3c(Cl)ccc(CNC(=O)C(C)(C)C)c3F)cccc12 [Example-62, N-(4-(tert-Butylamino)quinazolin-8-yl)-6-chloro-2-fluoro-3-(pivalamidomethyl)benzamide]
97.7% | 98.3% | < 50 nM | CC(C)(C)C(=O)NCc1ccc(Cl)c(C(=O)Nc2cccc3c(Nc4ccc(F)c(C(F)(F)F)c4)ncnc23)c1F [Example-25, 6-Chloro-2-fluoro-N-(4-((4-fluoro-3-(trifluoromethyl)phenyl)amino)quinazolin-8-yl)-3-(pivalamidomethyl)benzamide]
99.3% | 98.5% | < 50 nM | CC(C)(C)C(=O)NCc1ccc(Cl)c(C(=O)Nc2cccc3c(Oc4cc(C(F)(F)F)ccc4F)ccnc23)c1F [Example-40, 6-Chloro-2-fluoro-N-(4-(2-fluoro-5-(trifluoromethyl)phenoxy)quinolin-8-yl)-3-(pivalamidomethyl)benzamide]
100% | 96.7% | < 50 nM | CC(C)(C)C(=O)NCc1ccc(Cl)c(C(=O)Nc2cccc3c(Oc4cccc(C(F)(F)F)c4)nccc23)c1 [Example-7, 2-Chloro-5-(pivalamidomethyl)-N-(1-(3-(trifluoromethyl)phenoxy)isoquinolin-5-yl)benzamide]
97.4% | 90.7% | < 50 nM | CC(C)(C)C(=O)NCc1ccc(Cl)c(C(=O)Nc2cccc3c(Oc4cccc(C(F)(F)F)c4)ncnc23)c1F [Example-11, 6-Chloro-2-fluoro-3-(pivalamidomethyl)-N-(4-(3-(trifluoromethyl)phenoxy)quinazolin-8-yl)benzamide]
100% | 100% | < 50 nM | CC(C)(C)C(=O)NCc1ccc(Cl)c(C(=O)Nc2cccc3c(Nc4ccc(C(F)(F)F)cc4F)nccc23)c1 [Example-44, 2-Chloro-N-(1-((2-fluoro-4-(trifluoromethyl)phenyl)amino)isoquinolin-5-yl)-5-(pivalamidomethyl)benzamide]
96.7% | 96.8% | < 50 nM | CC(C)(CO)C(=O)NCc1ccc(Cl)c(C(=O)Nc2cccc3c(Oc4cccc(C(F)(F)F)c4)ncnc23)c1F [Example-66, 6-Chloro-2-fluoro-3-((3-hydroxy-2,2-dimethylpropanamido)methyl)-N-(4-(3-(trifluoromethyl)phenoxy)quinazolin-8-yl)benzamide]
100% | 99.9% | < 50 nM | CC(C)(C)C(=O)NCc1ccc(Cl)c(C(=O)Nc2cccc3c(Oc4cccc(C(F)(F)F)c4)ccnc23)c1F [Example-18, 6-Chloro-2-fluoro-3-(pivalamidomethyl)-N-(4-(3-(trifluoromethyl)phenoxy)quinolin-8-yl)benzamide]
89.4% | 97.7% | < 50 nM | CC(C)(C)C(=O)NCc1ccc(Cl)c(C(=O)Nc2cccc3c(Oc4ccc(C(F)(F)F)cc4)nccc23)c1 [Example-46, 2-Chloro-5-(pivalamidomethyl)-N-(1-(4-(trifluoromethyl)phenoxy)isoquinolin-5-yl)benzamide]

Second part, the compound before the results:

SMILES | inhibition at 1 µM | inhibition at 10 µM | IC50
CC(C)(C)C(=O)NCc1ccc(Cl)c(C(=O)Nc2cccc3c(NC4CCC(F)(F)CC4)ncnc23)c1 [Example-14, 2-Chloro-N-(4-((4,4-difluorocyclohexyl)amino)quinazolin-8-yl)-5-(pivalamidomethyl)benzamide] | 100% | 100% | < 50 nM
CC(C)(C)Nc1ncnc2c(NC(=O)c3cc(CNC(=O)C(C)(C)C)c(F)cc3Cl)cccc12 [Example-71, N-(4-(tert-Butylamino)quinazolin-8-yl)-2-chloro-4-fluoro-5-(pivalamidomethyl)benzamide] | 100% | 97.3% | < 50 nM
CC1(C)CCC(Oc2ncnc3c(NC(=O)c4cc(CNC(=O)C(C)(C)C)ccc4Cl)cccc23)CC1 [Example-15, 2-Chloro-N-(4-((4,4-dimethylcyclohexyl)oxy)quinazolin-8-yl)-5-(pivalamidomethyl)benzamide] | 98.1% | 97.5% | < 50 nM
Cc1ccc(CNC(=O)C(C)(C)C)c(C)c1C(=O)Nc1cccc2c(NC(C)(C)C)ncnc12 [Example-68, N-(4-(tert-Butylamino)quinazolin-8-yl)-2,6-dimethyl-3-(pivalamidomethyl)benzamide] | 99.8% | 100% | < 50 nM
CC(C)(C)Nc1ncnc2c(NC(=O)c3ccc(F)c(CNC(=O)C(C)(C)C)c3Cl)cccc12 [Example-72, N-(4-(tert-Butylamino)quinazolin-8-yl)-2-chloro-4-fluoro-3-(pivalamidomethyl)benzamide] | 86.8% | 98.7% | 50 to 100 nM
Cc1nc(NC(C)C)c2cccc(NC(=O)c3c(Cl)ccc(CNC(=O)C(C)(C)C)c3F)c2n1 [Example-57, 6-Chloro-2-fluoro-N-(4-(isopropylamino)-2-methylquinazolin-8-yl)-3-(pivalamidomethyl)benzamide] | 74.1% | 96% | > 100 nM
CC(C)(C)Nc1ncnc2c(NC(=O)c3cc(CNC(=O)C(C)(C)C)ccc3Cl)cccc12 [Example-67, N-(4-(tert-Butylamino)quinazolin-8-yl)-2-chloro-5-(pivalamidomethyl)benzamide] | 96.5% | 100% | < 50 nM
CC(C)(C)C(=O)NCc1ccc(Cl)c(C(=O)Nc2cccc3c(Nc4cccc(C(F)(F)F)c4)ncnc23)c1 [Example-13, 2-Chloro-5-(pivalamidomethyl)-N-(4-((3-(trifluoromethyl)phenyl)amino)quinazolin-8-yl)benzamide] | 90.2% | 92.2% | < 50 nM
CC(C)C(=O)NCc1ccc(Cl)c(C(=O)Nc2cccc3c(NC(C)(C)C)ncnc23)c1F [Example-70, N-(4-(tert-Butylamino)quinazolin-8-yl)-6-chloro-2-fluoro-3-(isobutyramidomethyl)benzamide] | 100% | 98.8% | < 50 nM
CC(C)(C)C(=O)NCc1ccc(Cl)c(C(=O)Nc2cccc3c(N[C@H]4CC[C@H](C(F)(F)F)CC4)ncnc23)c1F [Example-37, 6-Chloro-2-fluoro-3-(pivalamidomethyl)-N-(4-(((1r,4r)-4-(trifluoromethyl)cyclohexyl)amino)quinazolin-8-yl)benzamide] | 97.7% | 96.3% | < 50 nM
CC(C)C(=O)NCc1cnc(C(F)F)c(C(=O)Nc2cccc3c(NC(C)(C)C)ncnc23)c1 [Example-75, N-(4-(tert-Butylamino)quinazolin-8-yl)-2-(difluoromethyl)-5-(isobutyramidomethyl)nicotinamide] | 93.6% | 98.3% | < 50 nM
